Results: patent US4657911A, “3-amino quinuclidine derivatives and the application thereof as accelerators of gastro-intestinal motor function” (Delalande S.A., priority 1982, dated 1987)
Where a name gives a salt, the structure may show the parent alone. Read-outs that look alike come from different tables or passages of the source.

Assays:
[1] = acute toxicity in mice, method of MILLER and TAINTER; conditions: mouse, in vivo, ip
Experimental: In addition, the acute toxicity in mice was evaluated according to the method of MILLER and TAINTER described in Proc. Soc. Exp. Biol. Med. 57 261 (1944).

total transit = total transit test in rats; type: in vivo; conditions: Rattus norvegicus, po, read-out: % animals having completely evacuated the balls after 24 hours; for responders at 10 mg/kg: dose 10 mg/kg p.o.
Experimental: by the total transit test in rats, carried out according to the following method: The compounds of the invention were administered orally simultaneously with 20 steel balls to wakeful rats having eaten nothing for 20 hours. The fast was broken immediately after the administration and the compounds of the invention were administered a second time at the same dose after a period of 7 hours. The total transit was evaluated 24 hours after the first administration of the compounds to be tested by the percentage of the animals having evacuated all the balls in the faeces, the balls being counted by radiological examination.

gastric evacuation = gastric evacuation test on rats; type: in vivo; conditions: rats fasted 20 hours, 20 steel balls
Experimental: by the gastric evacuation test on rats, carried out with the following method: The compounds of the invention are administered orally together with 20 steel balls to wakeful rats having eaten nothing for 20 hours. The action on the gastric evacuation of the tested compounds was evaluated 90 minutes after administration thereof by the percentage of animals whose stomach contained no balls, these balls being counted by radiological examination.

[2] = rats, second administration at same dose after 7 hours, 24 hours
[3] = rats, dose 1 mg/kg p.o., second administration at same dose after 7 hours, 24 hours

Row | Structure (SMILES) | LD50 ([1]; Table III) [mg/kg] | responders at 1 mg/kg (total transit; [3]) [%] | other results
1 | COc1nc(N)ncc1C(=O)NC1CN2CCC1CC2 (stereo not shown) [Code number 1] | 300 | – | responders at 10 mg/kg (total transit; [2]): 50%
2 | COc1cc(N)c(Cl)cc1C(=O)NC1CN2CCC1CC2 (stereo not shown) [Code number 2, N-(3-quinuclidinyl)4-amino 5-chloro 2-methoxy benzamide, maleate] | – | 64 | LD50 ([1]; Table II): 105 mg/kg; % animals whose stomach contained no ball after 90 minutes (gastric evacuation; dose 5 mg/kg p.o.): 75%; % animals whose stomach contained no ball after 90 minutes (gastric evacuation; dose 10 mg/kg p.o.): 100%
3 | COc1cccc(C(=O)NC2CN3CCC2CC3)c1 (stereo not shown) [Code number 3] | – | – | LD50 ([1]; Table II): 110 mg/kg; % animals whose stomach contained no ball after 90 minutes (gastric evacuation; dose 2.5 mg/kg p.o.): 100%
4 | O=C(NC1CN2CCC1CC2)c1cccc(F)c1 (stereo not shown) [Code number 5, N-(3-quinuclidinyl)3-fluoro benzamide, oxalate] | – | – | LD50 ([1]; Table II): 140 mg/kg; % animals whose stomach contained no ball after 90 minutes (gastric evacuation; dose 2.5 mg/kg p.o.): 100%
5 | O=C(NC1CN2CCC1CC2)c1ccccc1F (stereo not shown) [compound 6] | 150 | – | responders at 10 mg/kg (total transit; [2]): 55%
6 | COc1ccccc1C(=O)NC1CN2CCC1CC2 (stereo not shown) [compound 7] | 150 | – | responders at 10 mg/kg (total transit; [2]): 50%
7 | COc1ccc(F)cc1C(=O)NC1CN2CCC1CC2 (stereo not shown) [compound 17] | 140 | 57 | –
8 | COc1ccc(Br)cc1C(=O)NC1CN2CCC1CC2 (stereo not shown) [compound 18] | 160 | – | responders at 1 mg/kg (total transit; 24 h): 38%
9 | O=C(NC1CN2CCC1CC2)c1cccc(Cl)c1 (stereo not shown) [compound 20] | 145 | 50 | –
10 | COc1cc(N)c(Cl)cc1C(=S)NC1CN2CCC1CC2 (stereo not shown) [compound 22] | 300 | 63 | –
11 | COc1cc(NC(C)=O)c(Cl)cc1C(=O)N(C)C1CN2CCC1CC2 (stereo not shown) [compound 23] | 50 | 38 | –
12 | COc1cc(N)c(Cl)cc1C(=O)N(C)C1CN2CCC1CC2 (stereo not shown) [compound 24] | 70 | 38 | –
13 | COc1cc(N)c(Cl)cc1C(=S)N(C)C1CN2CCC1CC2 (stereo not shown) [compound 25] | 80 | 44 | –
